Common to all, as to conditions: read-out: IC50 (nM)^1 / Martinostat
In experiment [1] the target is T1, HDAC8 (Homo sapiens, UniProt Q9BY41).
T1 sequence (Q9BY41 1-377): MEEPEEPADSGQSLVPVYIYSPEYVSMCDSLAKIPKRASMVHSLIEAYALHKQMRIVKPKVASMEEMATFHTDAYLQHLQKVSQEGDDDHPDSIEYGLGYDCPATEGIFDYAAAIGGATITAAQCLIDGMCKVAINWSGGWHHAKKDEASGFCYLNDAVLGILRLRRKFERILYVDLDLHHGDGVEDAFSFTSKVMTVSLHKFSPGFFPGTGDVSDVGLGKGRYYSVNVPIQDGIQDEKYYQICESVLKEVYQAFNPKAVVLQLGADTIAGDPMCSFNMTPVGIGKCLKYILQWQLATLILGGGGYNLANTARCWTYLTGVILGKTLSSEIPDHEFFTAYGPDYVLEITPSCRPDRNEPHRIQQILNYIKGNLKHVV
In words: biochemical. Also on record: Fluorescence HDAC isoenzyme deacetylase activity assay, excitation 360 nm, emission 460 nm. The method, then: HDAC activity assays were performed as previously reported. The fluorescence signal was measured using a SpectraMax i3x fluorimeter (Molecular Devices Korea) with SoftMax Pro software at an excitation wavelength of 360 nm and an emission wavelength of 460 nm. […] We conducted total HDAC activity assays to assess the effect of martinostat on the deacetylase activity in vitro.

Experiment [2] deals with T2, HDAC6 (Homo sapiens, UniProt Q9UBN7).
T2 sequence (Q9UBN7 1-1215): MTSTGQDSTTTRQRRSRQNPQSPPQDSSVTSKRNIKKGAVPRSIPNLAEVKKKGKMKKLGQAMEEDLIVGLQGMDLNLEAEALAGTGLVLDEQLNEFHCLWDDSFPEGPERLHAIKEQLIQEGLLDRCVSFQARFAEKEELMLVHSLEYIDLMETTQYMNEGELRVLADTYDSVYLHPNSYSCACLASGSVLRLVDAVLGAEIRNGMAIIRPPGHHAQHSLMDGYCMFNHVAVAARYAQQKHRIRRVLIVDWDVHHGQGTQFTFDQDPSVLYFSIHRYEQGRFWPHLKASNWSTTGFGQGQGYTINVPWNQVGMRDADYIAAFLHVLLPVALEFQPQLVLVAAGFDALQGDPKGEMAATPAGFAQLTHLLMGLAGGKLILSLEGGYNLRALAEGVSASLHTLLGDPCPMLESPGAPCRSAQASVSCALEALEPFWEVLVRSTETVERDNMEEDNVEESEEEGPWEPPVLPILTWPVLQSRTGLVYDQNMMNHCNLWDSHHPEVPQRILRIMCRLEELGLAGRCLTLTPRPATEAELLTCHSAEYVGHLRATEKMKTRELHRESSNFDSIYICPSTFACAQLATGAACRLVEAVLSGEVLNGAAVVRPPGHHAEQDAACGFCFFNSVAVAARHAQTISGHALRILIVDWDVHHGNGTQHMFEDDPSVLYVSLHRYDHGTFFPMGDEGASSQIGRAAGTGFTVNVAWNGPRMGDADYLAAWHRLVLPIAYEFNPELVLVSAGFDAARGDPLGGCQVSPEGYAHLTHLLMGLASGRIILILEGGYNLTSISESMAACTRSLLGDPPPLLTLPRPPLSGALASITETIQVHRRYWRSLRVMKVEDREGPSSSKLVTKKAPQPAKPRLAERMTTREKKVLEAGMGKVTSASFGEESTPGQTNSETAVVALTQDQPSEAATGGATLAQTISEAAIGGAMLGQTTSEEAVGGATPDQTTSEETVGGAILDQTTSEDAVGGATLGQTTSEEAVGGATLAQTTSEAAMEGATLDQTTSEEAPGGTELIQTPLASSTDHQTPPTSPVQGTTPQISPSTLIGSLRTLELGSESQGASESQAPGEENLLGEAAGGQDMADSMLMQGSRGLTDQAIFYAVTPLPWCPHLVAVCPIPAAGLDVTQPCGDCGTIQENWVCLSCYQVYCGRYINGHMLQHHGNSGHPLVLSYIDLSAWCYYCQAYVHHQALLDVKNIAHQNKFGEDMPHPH
Briefly: fluorescence HDAC isoenzyme activity assay. In kind it is biochemical.

Experiment [3] concerns the target HDAC2 (Homo sapiens, UniProt Q92769). Briefly: fluorescence HDAC isoenzyme activity assay. In kind it is biochemical.
Experiment [4] deals with T3, HDAC10 (Homo sapiens, UniProt Q969S8).
T3 sequence (Q969S8 1-669): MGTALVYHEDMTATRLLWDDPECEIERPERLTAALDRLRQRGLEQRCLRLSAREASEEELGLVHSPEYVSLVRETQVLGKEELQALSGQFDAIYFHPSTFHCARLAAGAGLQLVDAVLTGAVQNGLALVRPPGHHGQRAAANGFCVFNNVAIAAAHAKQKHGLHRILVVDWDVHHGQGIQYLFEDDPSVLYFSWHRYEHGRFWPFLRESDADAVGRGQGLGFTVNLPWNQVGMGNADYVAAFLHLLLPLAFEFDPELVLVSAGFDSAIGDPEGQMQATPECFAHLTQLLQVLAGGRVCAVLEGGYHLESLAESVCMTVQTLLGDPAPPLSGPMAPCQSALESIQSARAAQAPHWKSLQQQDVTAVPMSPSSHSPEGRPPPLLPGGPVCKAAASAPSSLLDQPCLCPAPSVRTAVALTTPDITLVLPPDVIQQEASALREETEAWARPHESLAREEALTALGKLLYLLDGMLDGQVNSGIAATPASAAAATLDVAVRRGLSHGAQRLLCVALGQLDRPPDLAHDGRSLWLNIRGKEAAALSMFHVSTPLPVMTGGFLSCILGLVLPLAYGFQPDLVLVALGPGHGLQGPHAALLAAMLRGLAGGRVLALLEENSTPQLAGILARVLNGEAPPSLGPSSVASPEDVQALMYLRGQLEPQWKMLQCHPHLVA
In words: fluorescence HDAC isoenzyme activity assay. In kind it is biochemical.

For experiment [5], the target named is HDAC3 (Homo sapiens, UniProt O15379). In words: fluorescence HDAC isoenzyme activity assay. In kind it is biochemical.
The target in experiment [6] is HDAC1 (Homo sapiens, UniProt Q13547). In words: fluorescence HDAC isoenzyme activity assay. In kind it is biochemical.
Experiment [7] has as its target T4, HDAC11 (Homo sapiens, UniProt Q96DB2).
T4 sequence (Q96DB2 1-347): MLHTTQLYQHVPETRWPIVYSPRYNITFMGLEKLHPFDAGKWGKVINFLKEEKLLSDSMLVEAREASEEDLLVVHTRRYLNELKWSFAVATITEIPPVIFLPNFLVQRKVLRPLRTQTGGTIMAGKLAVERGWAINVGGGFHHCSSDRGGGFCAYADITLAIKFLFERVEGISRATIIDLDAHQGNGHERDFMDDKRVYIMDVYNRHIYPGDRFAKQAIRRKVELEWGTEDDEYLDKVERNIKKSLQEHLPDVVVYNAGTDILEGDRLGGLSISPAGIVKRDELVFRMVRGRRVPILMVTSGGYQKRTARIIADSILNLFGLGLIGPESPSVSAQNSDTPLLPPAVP
In words: fluorescence HDAC isoenzyme activity assay. In kind it is biochemical.

HDAC3, sequence (O15379 whole entry): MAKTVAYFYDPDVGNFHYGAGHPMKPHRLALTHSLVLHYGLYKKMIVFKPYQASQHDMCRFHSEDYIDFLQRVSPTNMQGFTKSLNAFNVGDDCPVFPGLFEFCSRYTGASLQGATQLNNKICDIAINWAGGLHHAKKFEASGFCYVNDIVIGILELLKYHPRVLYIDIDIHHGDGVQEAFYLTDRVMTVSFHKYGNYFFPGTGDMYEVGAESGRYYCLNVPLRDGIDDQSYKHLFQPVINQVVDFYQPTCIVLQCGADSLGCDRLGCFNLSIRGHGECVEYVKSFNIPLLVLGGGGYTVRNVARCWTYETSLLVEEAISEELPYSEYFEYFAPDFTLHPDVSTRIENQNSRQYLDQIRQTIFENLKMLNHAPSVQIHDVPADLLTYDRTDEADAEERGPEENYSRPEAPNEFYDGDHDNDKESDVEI
HDAC1, sequence (Q13547 whole entry): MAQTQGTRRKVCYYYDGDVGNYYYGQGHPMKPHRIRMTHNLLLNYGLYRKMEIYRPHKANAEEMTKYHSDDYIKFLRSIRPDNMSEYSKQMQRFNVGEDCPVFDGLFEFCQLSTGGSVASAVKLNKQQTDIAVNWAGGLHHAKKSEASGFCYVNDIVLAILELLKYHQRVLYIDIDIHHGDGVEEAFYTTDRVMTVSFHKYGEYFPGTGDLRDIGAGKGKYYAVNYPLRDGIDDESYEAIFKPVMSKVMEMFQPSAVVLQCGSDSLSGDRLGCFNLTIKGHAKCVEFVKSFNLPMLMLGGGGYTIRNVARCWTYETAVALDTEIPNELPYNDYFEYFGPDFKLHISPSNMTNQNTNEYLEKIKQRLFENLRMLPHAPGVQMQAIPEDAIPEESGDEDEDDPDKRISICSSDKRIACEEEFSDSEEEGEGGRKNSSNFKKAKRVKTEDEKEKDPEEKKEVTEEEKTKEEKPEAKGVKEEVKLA
HDAC2, sequence (Q92769 whole entry): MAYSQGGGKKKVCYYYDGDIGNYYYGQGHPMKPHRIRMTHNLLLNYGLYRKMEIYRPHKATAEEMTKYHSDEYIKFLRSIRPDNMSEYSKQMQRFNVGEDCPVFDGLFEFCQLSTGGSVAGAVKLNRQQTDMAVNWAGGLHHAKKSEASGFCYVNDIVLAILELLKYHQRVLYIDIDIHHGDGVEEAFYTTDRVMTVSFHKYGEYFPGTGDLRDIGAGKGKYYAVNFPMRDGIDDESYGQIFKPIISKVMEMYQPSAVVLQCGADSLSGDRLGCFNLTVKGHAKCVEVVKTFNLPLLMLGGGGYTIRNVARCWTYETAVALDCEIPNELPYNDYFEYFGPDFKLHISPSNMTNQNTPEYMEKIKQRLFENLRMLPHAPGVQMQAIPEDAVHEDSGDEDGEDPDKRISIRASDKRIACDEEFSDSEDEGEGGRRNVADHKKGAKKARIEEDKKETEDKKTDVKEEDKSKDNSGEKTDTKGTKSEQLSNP

As to `CN(Cc1ccc(/C=C/C(=O)NO)cc1)CC12CC3CC(CC(C3)C1)C2` [martinostat], the IC50 in experiment [1] was determined as 1650 ± 155 nM; in experiment [2], 70 ± 7 nM; in experiment [3], 61 ± 7 nM; in experiment [4], 72 ± 7 nM; in experiment [5], 79 ± 8 nM; in experiment [6], 80 ± 3 nM. Further, the IC50 in experiment [7] stood at 34 ± 1 nM.

The values are drawn from paper PMC12269308, “Martinostat as a novel HDAC inhibitor to overcome tyrosine kinase inhibitor resistance in chronic myeloid leukemia” (Clinical Epigenetics, 2025).
